Columns and labels:
Type in all cases: functional, organism-based
[1] = system: Rattus norvegicus; assay: Compound was tested for carcinogenic activity on mixed data after various routes administration of the compound; + denotes four or five active sites
[2] = system: Rattus norvegicus; assay: Compound was tested for carcinogenic activity on liver after various routes administration of the compound; + denotes carcinogenic activity.
[3] = system: Rattus norvegicus; assay: Compound was tested for carcinogenic activity on breast after various routes administration of the compound; + denotes carcinogenic activity.
[4] = system: Rattus norvegicus; assay: Compound was tested for carcinogenic activity on other sites after various routes administration of the compound; + denotes carcinogenic activity.
[5] = system: Rattus norvegicus; assay: Compound was tested for carcinogenic activity on ear duct after various routes administration of the compound; + denotes carcinogenic activity.
[6] = system: Rattus norvegicus; assay: Compound was tested for carcinogenic activity on all sites after various routes administration of the compound; + denotes carcinogenic activity.
[7] = system: Rattus norvegicus; assay: Carcinogenic activity on ear duct after subcutaneous administration
[8] = system: Rattus norvegicus; assay: Compound was tested for carcinogenic activity on all sites after subcutaneous administration of the compound; + denotes carcinogenic activity.

Measured: Activity

CC(=O)Nc1ccc2c(c1)Cc1ccccc1-2
Carcinogenic activity: [1] | [2] | [3] | [4] | [5] | [6]

CCN(CC)c1ccc(/C=C/c2ccccc2)cc1
Carcinogenic activity: [7] | [8]

Source: ChEMBL document CHEMBL1121791, “Computer-assisted structure-activity studies of chemical carcinogens. Aromatic amines” (J Med Chem, 1981)
